Here are results for one molecule from patent US7136698B2 (priority 1996, dated 2006).

The data set is described as follows: Current density and goserelin flux: constant current electrotransport delivery. In kind it is in vivo, human. As to the method: This study was undertaken to evaluate the relationship between current density and drug flux in the transdermal electrotransport delivery of goserelin. The study involved the application of electrotransport devices, applying constant current, to 12 normal male volunteers for a duration of 8 hours.
The two electrotransport treatment regimens in this study differed only in applied current density levels. The electrotransport devices delivered goserelin through the skin from polyvinyl alcohol (PVOH)-based donor hydrogels having a skin-contact surface area of 4 cm^2. The gels contained an aqueous goserelin solution. The current density levels used in this study were […]. After an 8 hour treatment period, the electrotransport devices were removed. The skin site was then washed to remove any residual goserelin. All 12 volunteers received each treatment seven days apart.
For each treatment, seven blood samples were taken over a 24 hour period commencing with the application of current from the electrotransport devices. Serum goserelin concentrations from each patient were used to calculate mean drug flux and the mean total amount of drug delivered.

For `CC(C)C[C@H](NC(=O)[C@@H](COC(C)(C)C)NC(=O)[C@H](Cc1ccc(O)cc1)NC(=O)[C@H](CO)NC(=O)[C@H](Cc1c[nH]c2ccccc12)NC(=O)[C@H](Cc1cnc[nH]1)NC(=O)[C@@H]1CCC(=O)N1)C(=O)N[C@@H](CCCNC(=N)N)C(=O)N1CCC[C@H]1C(=O)NNC(N)=O` [goserelin], the “average transdermal goserelin flux” value was 5.8 µg/h (applied current density 50 μA/cm^2, 8 hours) and 21.6 µg/h (applied current density 100 μA/cm^2, 8 hours). The “increase in drug flux” value (current density rises from 50 to 100 μA/cm^2) is recorded as “almost four-fold increase”.
